Columns and labels:
[1] = Solubility studies of tadalafil in vegetable oils; assay type: physicochemical; conditions: such as olive oil, sunflower oil, safflower oil, soybean oil
From the text: Suspension formulations of tadalafil were initially produced in soybean oil, and in a mixture of hydrogenated and partially-hydrogenated soybean oil in order to produce a stable suspension.

[2] = cited from earlier work

solubility in vegetable oils [1]: practically insoluble
Compound: CN1CC(=O)N2[C@H](c3ccc4c(c3)OCO4)c3[nH]c4ccccc4c3C[C@@H]2C1=O [Tadalafil, (6R,12aR)-6-(Benzo[d][1,3]dioxol-5-yl)-2-methyl-2,3,12,12a]
solubility in ethanol and other organic solvents ([2]; ethanol and other organic solvents): very slightly soluble | solubility in water ([2]; water): practically insoluble

Reference: patent EP3510997B1, “SOFT GELATIN CAPSULES COMPRISING A SUSPENSION OF TADALAFIL” (Gap S.A., priority 2018, dated 2019)
